In ChEMBL document CHEMBL3091347, “Comparison of Multiple Linear Regressions and Neural Networks based QSAR models for the design of new antitubercular compounds” (Eur J Med Chem, 2013):
≈ marks a conversion by molar mass, not a printed value.

Columns and labels:
[1] = Lipophilicity, log P of the compound; details: octanol/water, logP
[2] = test system: Mycobacterium tuberculosis; test: Antitubercular activity against Mycobacterium tuberculosis H37Rv; format: functional; details: for MIC: Mycobacterium tuberculosis, H37Rv

SMILES | logP [1] | log(1/MIC) [2] | MIC [2] [µg/mL]
Cc1cc(C(=O)NN)ccn1 | -1.67 | 0.1045 | 0.79 (≈ 5.23 µM)
CCc1cc(C(=O)NN)ccn1 | -1.14 | -0.5423 | 3.49 (≈ 21.1 µM)
